Measurements published in ChEMBL document CHEMBL1149908, “Involvement of p21 and FasL in induction of cell cycle arrest and apoptosis by neochamaejasmin A in human prostate LNCaP cancer cells” (J Nat Prod, 2008).
Converted amounts (≈) assume the structure as drawn. The source made the active and inactive calls. The calls are words filed in the database; no cut-off is given here.

What was measured:
LNCaP [1] = test: Induction of procaspase 3 expression in human LNCaP cells at 25 ug/ml after 48 hrs by immunoblot; assay type: functional, cell-based
LNCaP [2] = test: Reduction of NF-kappaB binding to cyclin D promoter in human LNCaP cells by electrophoretic mobility shift assay; assay type: cell-based
LNCaP [3] = test: Induction of apoptosis in human LNCaP cells assessed as procaspase 3 cleavage at 12.5 ug/ml by immunoblot; assay type: functional, cell-based; conditions: TDE = time-dependent effect
LNCaP [4] = test: Effect on cell morphology in human LNCaP cells assessed as loss of cell surface structure at => 12.5 ug/mL; assay type: functional
LNCaP [5] = test: Apoptotic activity in human LNCaP cells assessed as induction of FasL expression at 12.5 ug/ml after 6 hrs by immunoblot; assay type: functional, cell-based
LNCaP [6] = test: Apoptotic activity in human LNCaP cells assessed as induction of p21 expression at 12.5 ug/ml after 12 hrs by immunoblot; assay type: functional, cell-based
[7] = molecular target: Transcription factor Jun (Homo sapiens) (UniProt P05412); test: Reduction of AP1 binding to cyclin D promoter in human LNCaP cells by electrophoretic mobility shift assay; assay type: cell-based
Transcription factor Jun (Homo sapiens), sequence (P05412 whole entry): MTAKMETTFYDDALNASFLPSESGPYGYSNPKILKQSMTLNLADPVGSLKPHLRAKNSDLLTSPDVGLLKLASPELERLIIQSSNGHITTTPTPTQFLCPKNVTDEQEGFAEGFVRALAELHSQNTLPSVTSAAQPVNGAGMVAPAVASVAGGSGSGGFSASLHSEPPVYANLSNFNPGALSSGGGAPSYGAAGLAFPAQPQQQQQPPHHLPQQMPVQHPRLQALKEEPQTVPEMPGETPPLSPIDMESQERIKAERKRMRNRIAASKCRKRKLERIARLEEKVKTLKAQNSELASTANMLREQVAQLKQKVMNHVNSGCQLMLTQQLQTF

LNCaP [8] = test: Increase in intracellular ROS generation in human LNCaP cells at 6.25 ug/ml after 30 mins; assay type: functional
LNCaP [9] = test: Induction of procaspase 3 expression in human LNCaP cells at 50 ug/ml after 48 hrs by immunoblot; assay type: functional, cell-based
L929 = test: Cytotoxicity against mouse L929 cells after 48 hrs by MTT assay; assay type: cell-based; conditions: L929, 48 h
LNCaP [10] = test: Apoptotic activity in human LNCaP cells assessed as induction of FasL expression after 12 hrs; assay type: functional, cell-based
LNCaP [11] = test: Cell cycle arrest in human LNCaP cells assessed as accumulation in S phase at 6.25 ug/ml after 4 days; assay type: functional
LNCaP [12] = test: Increase in intracellular ROS generation in human LNCaP cells at 50 ug/ml after 30 mins; assay type: functional
LNCaP [13] = test: Induction of apoptosis in human LNCaP cells assessed as procaspase 3 cleavage at 50 ug/ml by immunoblot; assay type: functional, cell-based; conditions: TDE = time-dependent effect
LNCaP [14] = test: Induction of procaspase 3 expression in human LNCaP cells at 6.25 ug/ml after 48 hrs by immunoblot; assay type: functional, cell-based
LNCaP [15] = test: Induction of apoptosis in human LNCaP cells assessed as procaspase 8 cleavage by immunoblot; assay type: functional, cell-based
LNCaP [16] = test: Cytotoxicity against human LNCaP cells after 48 hrs by MTT assay; assay type: functional, cell-based
LNCaP [17] = test: Cell cycle arrest in human LNCaP cells assessed as reduction of G1 phase at > 6.25 ug/ml after 4 days; assay type: functional, cell-based
LNCaP [18] = test: Decrease of PCNA expression in human LNCaP cells after 24 hrs by immunoblotting analysis; assay type: functional, cell-based
LNCaP [19] = test: Apoptotic activity in human LNCaP cells assessed as induction of Fas expression at 12.5 ug/ml after 24 hrs by immunoblot; assay type: functional, cell-based
LNCaP [20] = test: Increase in p21 mRNA expression in human LNCaP cells at >12.5 ug/mL after 24 hrs by RT-PCR; assay type: functional, cell-based
LNCaP [21] = test: Decrease in mitochondrial membrane potential in human LNCaP cells at 6.25 ug/ml after 18 hrs; assay type: functional
SW-620 = test: Cytotoxicity against human SW620 cells after 48 hrs by MTT assay; assay type: functional, cell-based; conditions: SW-620, 48 h
LNCaP [22] = test: Decrease in mitochondrial membrane potential in human LNCaP cells at 50 ug/ml after 18 hrs; assay type: functional, cell-based
LNCaP [23] = test: Induction of apoptosis in human LNCaP cells assessed as procaspase 8 cleavage at 12.5 ug/ml by immunoblot; assay type: functional, cell-based; conditions: TDE = time-dependent effect
LNCaP [24] = test: Induction of apoptosis in human LNCaP cells assessed as procaspase 8 cleavage at 50 ug/ml by immunoblot; assay type: functional, cell-based; conditions: TDE = time-dependent effect
LNCaP [25] = test: Induction of apoptosis in human LNCaP cells assessed as procaspase 3 cleavage by immunoblot; assay type: functional, cell-based
LNCaP [26] = test: Decrease of cyclin D expression in human LNCaP cells after 24 hrs by immunoblotting analysis; assay type: functional, cell-based
LNCaP [27] = test: Cell cycle arrest in human LNCaP cells assessed as accumulation in G1 phase at 6.25 ug/ml after 4 days; assay type: functional
LNCaP [28] = test: Induction of apoptosis in human LNCaP cells assessed as subG1 phase accumulation at > 6.25 ug/ml after 4 days; assay type: functional, cell-based

Q: With `O=C1c2c(O)cc(O)cc2O[C@H](c2ccc(O)cc2)[C@@H]1[C@@H]1C(=O)c2c(O)cc(O)cc2O[C@@H]1c1ccc(O)cc1` [NEOCHAMAEJASMIN A] as the compound, how does the Activity (LNCaP [1]) read?
A: Active

Q: What about the Activity (LNCaP [2]) of the same compound?
A: Active

Q: And the Activity (LNCaP [3])?
A: tde

Q: And the Activity (LNCaP [4])?
A: >=12.5 ug ml-1

Q: What about the Activity (LNCaP [5]) of the same compound?
A: Active

Q: What about the Activity (LNCaP [6]) of the same compound?
A: Active

Q: What about the Activity [7] of the same compound?
A: Active

Q: And the “fold change (FC)” value (LNCaP [8])?
A: 1.5

Q: What about the Activity (LNCaP [9]) of the same compound?
A: Active

Q: What about the IC50 (L929) of the same compound?
A: 90 µg/mL (≈ 166 µM)

Q: What about the Activity (LNCaP [10]) of the same compound?
A: Dose-dependent effect

Q: What about the Activity (LNCaP [11]) of the same compound?
A: <10%

Q: And the “fold change (FC)” value (LNCaP [12])?
A: 3.5

Q: And the Activity (LNCaP [13])?
A: tde

Q: What about the Activity (LNCaP [14]) of the same compound?
A: Active

Q: What about the Activity (LNCaP [15]) of the same compound?
A: Dose-dependent effect

Q: What about the IC50 (LNCaP [16]) of the same compound?
A: 12.5 µg/mL (≈ 23 µM)

Q: What about the Activity (LNCaP [17]) of the same compound?
A: Dose-dependent effect

Q: And the Activity (LNCaP [18])?
A: Dose-dependent effect

Q: And the Activity (LNCaP [19])?
A: Active

Q: And the Activity (LNCaP [20])?
A: Active

Q: What about the “fold change (FC)” value (LNCaP [21]) of the same compound?
A: 1.6

Q: What about the IC50 (SW-620) of the same compound?
A: 25.1 µg/mL (≈ 46.3 µM)

Q: What about the Activity (LNCaP [22]) of the same compound?
A: Active

Q: And the Activity (LNCaP [23])?
A: tde

Q: And the Activity (LNCaP [24])?
A: tde

Q: And the Activity (LNCaP [25])?
A: Dose-dependent effect

Q: And the Activity (LNCaP [26])?
A: Dose-dependent effect

Q: And the Activity (LNCaP [27])?
A: 75%

Q: And the Activity (LNCaP [28])?
A: Active
